Results on four molecules are retold here after ChEMBL document CHEMBL1681651, “A broad spectrum anticancer nucleoside with selective toxicity against human colon cells in vitro” (2011).

Holding throughout (type): functional
For one experiment, the system named is HL-60(TB). The experiment in a line: Growth inhibition of human HL-60(TB) cells after 48 hrs by […] growth inhibition assay. To be noted: HL-60, 48 h.
The next experiment concerns K562. The experiment in a line: Growth inhibition of human K562 cells after 48 hrs by […] growth inhibition assay. To be noted: K562, 48 h.
Experiment [1] has as its system MOLT-4. The experiment in a line: Growth inhibition of human MOLT4 cells after 48 hrs by […] growth inhibition assay. To be noted: MOLT-4, 48 h.
The subject of experiment [2] is SW-620. The experiment in a line: Growth inhibition of human SW620 cells after 48 hrs by […] growth inhibition assay. To be noted: SW-620, 48 h.
A short description of experiment [3]: Growth inhibition of human Hs 578T cells after 48 hrs by […] growth inhibition assay.
The subject of experiment [4] is MOLT-4. The experiment in a line: Growth inhibition of human MOLT4 cells assessed as cell growth at 0.1 uM after 48 hrs by SRB assay. To be noted: MOLT-4, 48 h, read-out: Activity. In general terms: Sulforhodamine B stains cellular protein and so reports cell mass.
A further experiment deals with PC-3. The experiment in a line: Growth inhibition of human PC3 cells assessed as cell growth at 0.1 uM after 48 hrs by SRB assay. To be noted: PC-3, 48 h, read-out: Activity.
Experiment [5] is described as follows: Growth inhibition of human Hs 578T cells assessed as cell growth at 0.1 uM after 48 hrs by SRB assay. To be noted: read-out: Activity.
The test system of the next experiment is SR. The experiment in a line: Growth inhibition of human SR cells assessed as cell growth at 100 uM after 48 hrs by SRB assay. To be noted: read-out: Activity.
The test system of experiment [6] is SW-620. The experiment in a line: Growth inhibition of human SW620 cells assessed as cell growth at 100 uM after 48 hrs by SRB assay. To be noted: SW-620, 48 h, read-out: Activity.
Experiment [7] can be described thus: Growth inhibition of human Hs 578T cells assessed as cell growth at 100 uM after 48 hrs by SRB assay. To be noted: read-out: Activity.
For experiment [8], the system named is MOLT-4. The experiment in a line: Growth inhibition of human MOLT4 cells assessed as cell growth at 1 mM after 48 hrs by SRB assay. To be noted: MOLT-4, 48 h, read-out: Activity.
Experiment [9] has as its system MDA-MB-468. The experiment in a line: Growth inhibition of human MDA-MB-468 cells assessed as cell growth at 10 uM after 48 hrs by SRB assay. To be noted: MDA-MB-468, 48 h, read-out: Activity.
Experiment [10] has as its system MDA-MB-468. The experiment in a line: Growth inhibition of human MDA-MB-468 cells assessed as cell growth at 0.1 uM after 48 hrs by SRB assay. To be noted: MDA-MB-468, 48 h, read-out: Activity.
In experiment [11] the test system is MDA-MB-468. The experiment in a line: Growth inhibition of human MDA-MB-468 cells assessed as cell growth at 100 uM after 48 hrs by SRB assay. To be noted: MDA-MB-468, 48 h, read-out: Activity.
The subject of experiment [12] is MDA-MB-468. The experiment in a line: Growth inhibition of human MDA-MB-468 cells assessed as cell growth at 1 uM after 48 hrs by SRB assay. To be noted: MDA-MB-468, 48 h, read-out: Activity.
Experiment [13] relates to MDA-MB-468. The experiment in a line: Growth inhibition of human MDA-MB-468 cells assessed as cell growth at 1 mM after 48 hrs by SRB assay. To be noted: MDA-MB-468, 48 h, read-out: Activity.
[14] abbreviates: read-out: LC50 (the source's name).
The mark [15] stands for this setting: read-out: pLC50 (the source's name) (converted).

Structures are written as SMILES.

On to `CCOC(=O)C[C@H]1[C@@H](O[Si](C)(C)C(C)(C)C)[C@H](n2cnc3c(NC(=O)Nc4ccccc4)ncnc32)O[C@@H]1CNC(=O)NC`, for which the GI50 in the experiment with HL-60(TB) (read-out: GI50) was 3.01 µM; in the experiment with HL-60(TB) (read-out: pGI50 (converted)), 3.02 µM; with K562 (read-out: GI50), 3.59 µM; with K562 (read-out: pGI50 (converted)), 3.63 µM; with MOLT-4 [1] (read-out: GI50) it was 2.39 µM; in the experiment with MOLT-4 [1] (read-out: pGI50 (converted)) it was 2.4 µM. Also, the GI50 is 4.8 µM with SW-620 [2] (read-out: GI50), 4.79 µM in the experiment on SW-620 [2] (read-out: pGI50 (converted)), 3.6 µM in experiment [3] (read-out: GI50) and 3.63 µM in experiment [3] (read-out: pGI50 (converted)). The CC50 (with HL-60(TB) (setting [14]); in the experiment on HL-60(TB) (setting [15]); with SW-620 [2] (setting [14]); in the experiment on SW-620 [2] (setting [15]); in [3] (setting [14]); in experiment [3] (setting [15])) was greater than 100 µM throughout. The LC50 (concentration killing 50% of cells) in the experiment with K562 (read-out: LC50) and with K562 (read-out: pLC50 (converted)) was greater than 100 µM each time. The TGI was 32.9 µM with K562 (read-out: TGI); 33.1 µM with K562 (read-out: pTGI (converted)); 23.3 µM in the experiment with MOLT-4 [1] (read-out: TGI); 23.4 µM with MOLT-4 [1] (read-out: pTGI (converted)); 28.4 µM with SW-620 [2] (read-out: TGI); 28.2 µM in the experiment on SW-620 [2] (read-out: pTGI (converted)). Further, the TGI in experiment [3] (read-out: TGI) was 53.6 µM; in experiment [3] (read-out: pTGI (converted)) it was 53.7 µM. Further, the LC50 in the experiment on MOLT-4 [1] (read-out: LC50) and with MOLT-4 [1] (read-out: pLC50 (converted)) was greater than 100 µM in each case. Moreover, the growth at 0.1 µM came out at 93% in the experiment with MOLT-4 [4], 121% with PC-3 and 94% in experiment [5]. Moreover, the figures for the growth at 100 µM (with SR; with SW-620 [6]; in experiment [7]) were -15%, 28% and 18%, respectively. The growth at 1000 µM in the experiment on MOLT-4 [8] is -14%.
Regarding `CNC(=O)NC[C@H]1O[C@@H](n2cnc3c(NC(=O)Nc4ccccc4)ncnc32)[C@H](O[Si](C)(C)C(C)(C)C)[C@@H]1CC(=O)N(C)OC`, the GI50 with HL-60(TB) (read-out: GI50) was 1.81 µM; with HL-60(TB) (read-out: pGI50 (converted)) it was 1.82 µM; with K562 (read-out: GI50), 3.12 µM; in the experiment with K562 (read-out: pGI50 (converted)), 3.09 µM; in the experiment on MOLT-4 [1] (read-out: GI50), 2.13 µM; in the experiment with MOLT-4 [1] (read-out: pGI50 (converted)), 2.24 µM. Besides, the GI50 with SW-620 [2] (read-out: GI50) was greater than 100 µM; with SW-620 [2] (read-out: pGI50 (converted)), greater than 100 µM; in experiment [3] (read-out: GI50), 5.79 µM; in experiment [3] (read-out: pGI50 (converted)), 5.75 µM. Besides, the CC50 in the experiment on HL-60(TB) (setting [14]) is greater than 100 µM; in the experiment with HL-60(TB) (setting [15]), 16.2 µM; in the experiment with SW-620 [2] (setting [14]) it was greater than 100 µM; in the experiment on SW-620 [2] (setting [15]), greater than 100 µM; in [3] (setting [14]), greater than 100 µM; in [3] (setting [15]), greater than 100 µM. Also, the TGI in the experiment on HL-60(TB) (read-out: TGI) is 4.34 µM; with HL-60(TB) (read-out: pTGI (converted)), 4.37 µM; in the experiment with K562 (read-out: TGI), greater than 100 µM; with K562 (read-out: pTGI (converted)), greater than 100 µM; in the experiment on MOLT-4 [1] (read-out: TGI), 9.36 µM; in the experiment on MOLT-4 [1] (read-out: pTGI (converted)) it was 9.33 µM. Besides, the TGI (with SW-620 [2] (read-out: TGI); in the experiment on SW-620 [2] (read-out: pTGI (converted)); in experiment [3] (read-out: TGI); in [3] (read-out: pTGI (converted))) was greater than 100 µM throughout. In addition, the LC50 (concentration killing 50% of cells) in the experiment on K562 (read-out: LC50) and in the experiment with K562 (read-out: pLC50 (converted)) was greater than 100 µM in each case. The LC50 in the experiment on MOLT-4 [1] (read-out: LC50) and in the experiment with MOLT-4 [1] (read-out: pLC50 (converted)) was greater than 100 µM each time. The growth at 0.1 µM in the experiment with MOLT-4 [4] is 96%; in experiment [5], 98%. For the same molecule, the growth at 100 µM was -53% with SR, 65% in the experiment on SW-620 [6] and 40% in [7]. The growth at 1000 µM in the experiment on MOLT-4 [8] was -5%.
Regarding `CNC(=O)NC[C@H]1O[C@@H](n2cnc3c(NC(=O)Nc4ccccc4)ncnc32)[C@H](O[Si](C)(C)C(C)(C)C)[C@@H]1O[Si](C)(C)C(C)(C)C`, the growth at 0.1 µM in the experiment with PC-3 came out at 93%; in the experiment on MDA-MB-468 [10] it was 101%. In addition, in the experiment on MDA-MB-468 [9], the growth at 10 µM worked out at 99%. Besides, in the experiment with MDA-MB-468 [11], the growth at 100 µM turned out to be 6%. Further, the growth at 1 µM in the experiment on MDA-MB-468 [12] worked out at 104%. Further, in the experiment on MDA-MB-468 [13], the growth at 1000 µM was -35%.
On to `CNC(=O)OC[C@H]1O[C@@H](n2cnc3c(NC(=O)Nc4ccccc4)ncnc32)[C@H](O[Si](C)(C)C(C)(C)C)[C@@H]1O[Si](C)(C)C(C)(C)C`, for which the growth at 10 µM in the experiment with MDA-MB-468 [9] came to 104%.
